Counter-ions that a name gives are not always drawn.
How the values were obtained:
Details in all cases: HepG2, doxorubicin HCl 25 nM, standard 11
abcD3 = assay: DT1 microarray drug screening, drug-treated HepG2: abcD3; format: cell-based, human
Description: (§1) The labelled cDNA target preparation was thawed and the 150 μl added to 850 ul hybridisation buffer (500 mM sodium Phosphate pH 6.0, 1% SDS, 1% BSA, 1 mM EDTA) in a 1.5 ml microtube and heated at 95° C. for 10 min.

abcB7 = assay: DT1 microarray drug screening, drug-treated HepG2: abcB7; format: cell-based, human
Description: as §1

abcG2 = assay: DT1 microarray drug screening, drug-treated HepG2: abcG2; format: cell-based, human
Description: as §1

abcC13 = assay: DT1 microarray drug screening, drug-treated HepG2: abcC13; format: cell-based, human
Description: as §1

abcA8 = assay: DT1 microarray drug screening, drug-treated HepG2: abcA8; format: cell-based, human
Description: as §1

abcF2 = assay: DT1 microarray drug screening, drug-treated HepG2: abcF2; format: cell-based, human
Description: as §1

abcB4 = assay: DT1 microarray drug screening, drug-treated HepG2: abcB4; format: cell-based, human
Description: as §1

abcC8 = assay: DT1 microarray drug screening, drug-treated HepG2: abcC8; format: cell-based, human
Description: as §1

abcC10 = assay: DT1 microarray drug screening, drug-treated HepG2: abcC10; format: cell-based, human
Description: as §1

abcC9 = assay: DT1 microarray drug screening, drug-treated HepG2: abcC9; format: cell-based, human
Description: as §1

abcA4 = assay: DT1 microarray drug screening, drug-treated HepG2: abcA4; format: cell-based, human
Description: as §1

abcB10 = assay: DT1 microarray drug screening, drug-treated HepG2: abcB10
abcA12 = assay: DT1 microarray drug screening, drug-treated HepG2: abcA12; format: cell-based, human
Description: as §1

abcA5 = assay: DT1 microarray drug screening, drug-treated HepG2: abcA5; format: cell-based, human
Description: as §1

abcC1 = assay: DT1 microarray drug screening, drug-treated HepG2: abcC1
abcC2 = assay: DT1 microarray drug screening, drug-treated HepG2: abcC2; format: cell-based, human
Description: as §1

abcC5 = assay: DT1 microarray drug screening, drug-treated HepG2: abcC5; format: cell-based, human
Description: as §1

abcA6 = assay: DT1 microarray drug screening, drug-treated HepG2: abcA6; format: cell-based, human
Description: as §1

abcC3 = assay: DT1 microarray drug screening, drug-treated HepG2: abcC3; format: cell-based, human
Description: as §1

abcD2 = assay: DT1 microarray drug screening, drug-treated HepG2: abcD2; format: cell-based, human
Description: as §1

abcB6 = assay: DT1 microarray drug screening, drug-treated HepG2: abcB6; format: cell-based, human
Description: as §1

abcB11 = assay: DT1 microarray drug screening, drug-treated HepG2: abcB11; format: cell-based, human
Description: as §1

abcB3 = assay: DT1 microarray drug screening, drug-treated HepG2: abcB3; format: cell-based, human
Description: as §1

abcC6 = assay: DT1 microarray drug screening, drug-treated HepG2: abcC6; format: cell-based, human
Description: as §1

abcD1 = assay: DT1 microarray drug screening, drug-treated HepG2: abcD1; format: cell-based, human
Description: as §1

abcB8 = assay: DT1 microarray drug screening, drug-treated HepG2: abcB8; format: cell-based, human
Description: as §1

abcA10 = assay: DT1 microarray drug screening, drug-treated HepG2: abcA10; format: cell-based, human
Description: as §1

abcA1 = assay: DT1 microarray drug screening, drug-treated HepG2: abcA1; format: cell-based, human
Description: as §1

abcA2 = assay: DT1 microarray drug screening, drug-treated HepG2: abcA2; format: cell-based, human
Description: as §1

abcG4 = assay: DT1 microarray drug screening, drug-treated HepG2: abcG4; format: cell-based, human
Description: as §1

abcE1 = assay: DT1 microarray drug screening, drug-treated HepG2: abcE1; format: cell-based, human
Description: as §1

abcF3 = assay: DT1 microarray drug screening, drug-treated HepG2: abcF3; format: cell-based, human
Description: as §1

## COc1cccc2c1C(=O)c1c(O)c3c(c(O)c1C2=O)C[C@@](O)(C(=O)CO)C[C@@H]3O[C@H]1C[C@H](N)[C@H](O)[C@H](C)O1 [dox, doxorubicin HCl]
abcD3; 2 h
  relative level of abcD3 gene expression: 2.099
abcD3; 4 h
  relative level of abcD3 gene expression: 1.787
abcD3; 8 h
  relative level of abcD3 gene expression: 1.733
abcB7; 2 h
  relative level of abcB7 gene expression: 0.2622
abcB7; 4 h
  relative level of abcB7 gene expression: 0.1619
abcB7; 8 h
  relative level of abcB7 gene expression: 0.1766
abcG2; 2 h
  relative level of abcG2 gene expression: 2.989
abcG2; 4 h
  relative level of abcG2 gene expression: 2.137
abcG2; 8 h
  relative level of abcG2 gene expression: 2.08
abcC13; 2 h
  relative level of abcC13 gene expression: 3.203
abcC13; 4 h
  relative level of abcC13 gene expression: 2.548
abcC13; 8 h
  relative level of abcC13 gene expression: 2.593
abcA8; 2 h
  relative level of abcA8 gene expression: 3.036
abcA8; 4 h
  relative level of abcA8 gene expression: 1.786
abcA8; 8 h
  relative level of abcA8 gene expression: 2.174
abcF2; 2 h
  relative level of abcF2 gene expression: 5.979
abcF2; 4 h
  relative level of abcF2 gene expression: 4.068
abcF2; 8 h
  relative level of abcF2 gene expression: 4.807
abcB4; 2 h
  relative level of abcB4 gene expression: 9.148
abcB4; 4 h
  relative level of abcB4 gene expression: 5.624
abcB4; 8 h
  relative level of abcB4 gene expression: 6.417
abcC8; 2 h
  relative level of abcC8 gene expression: 0.3229
abcC8; 4 h
  relative level of abcC8 gene expression: 0.2437
abcC8; 8 h
  relative level of abcC8 gene expression: 0.2255
abcC10; 2 h
  relative level of abcC10 gene expression: 5.151
abcC10; 4 h
  relative level of abcC10 gene expression: 3.335
abcC10; 8 h
  relative level of abcC10 gene expression: 3.633
abcC9; 2 h
  relative level of abcC9 gene expression: 5.598
abcC9; 4 h
  relative level of abcC9 gene expression: 3.678
abcC9; 8 h
  relative level of abcC9 gene expression: 3.982
abcA4; 2 h
  relative level of abcA4 gene expression: 8.765
abcA4; 4 h
  relative level of abcA4 gene expression: 4.535
abcA4; 8 h
  relative level of abcA4 gene expression: 6.099
abcB10; 2 h
  relative level of abcB10 gene expression: 2.116
abcB10; 4 h
  relative level of abcB10 gene expression: 1.484
abcB10; 8 h
  relative level of abcB10 gene expression: 1.542
abcA12; 2 h
  relative level of abcA12 gene expression: 5.829
abcA12; 4 h
  relative level of abcA12 gene expression: 3.419
abcA12; 8 h
  relative level of abcA12 gene expression: 4.195
abcA5; 2 h
  relative level of abcA5 gene expression: 3.302
abcA5; 4 h
  relative level of abcA5 gene expression: 2.021
abcA5; 8 h
  relative level of abcA5 gene expression: 2.451
abcC1; 2 h
  relative level of abcC1 gene expression: 7.005
abcC1; 4 h
  relative level of abcC1 gene expression: 4.767
abcC1; 8 h
  relative level of abcC1 gene expression: 5.056
abcC2; 2 h
  relative level of abcC2 gene expression: 0.6141
abcC2; 4 h
  relative level of abcC2 gene expression: 0.3603
abcC2; 8 h
  relative level of abcC2 gene expression: 0.3548
abcC5; 2 h
  relative level of abcC5 gene expression: 10.51
abcC5; 4 h
  relative level of abcC5 gene expression: 6.29
abcC5; 8 h
  relative level of abcC5 gene expression: 6.522
abcA6; 2 h
  relative level of abcA6 gene expression: 6.045
abcA6; 4 h
  relative level of abcA6 gene expression: 3.367
abcA6; 8 h
  relative level of abcA6 gene expression: 4.296
abcC3; 2 h
  relative level of abcC3 gene expression: 7.156
abcC3; 4 h
  relative level of abcC3 gene expression: 4.014
abcC3; 8 h
  relative level of abcC3 gene expression: 4.2
abcD2; 2 h
  relative level of abcD2 gene expression: 2.503
abcD2; 4 h
  relative level of abcD2 gene expression: 2.516
abcD2; 8 h
  relative level of abcD2 gene expression: 2.409
abcB6; 2 h
  relative level of abcB6 gene expression: 5.174
abcB6; 4 h
  relative level of abcB6 gene expression: 3.283
abcB6; 8 h
  relative level of abcB6 gene expression: 3.612
abcB11; 2 h
  relative level of abcB11 gene expression: 5.31
abcB11; 4 h
  relative level of abcB11 gene expression: 3.404
abcB11; 8 h
  relative level of abcB11 gene expression: 3.888
abcB3; 2 h
  relative level of abcB3 gene expression: 6.838
abcB3; 4 h
  relative level of abcB3 gene expression: 4.325
abcB3; 8 h
  relative level of abcB3 gene expression: 4.813
abcC6; 2 h
  relative level of abcC6 gene expression: 7.696
abcC6; 4 h
  relative level of abcC6 gene expression: 4.516
abcC6; 8 h
  relative level of abcC6 gene expression: 4.899
abcD1; 2 h
  relative level of abcD1 gene expression: 4.477
abcD1; 4 h
  relative level of abcD1 gene expression: 3.386
abcD1; 8 h
  relative level of abcD1 gene expression: 3.516
abcB8; 2 h
  relative level of abcB8 gene expression: 8.004
abcB8; 4 h
  relative level of abcB8 gene expression: 5.438
abcB8; 8 h
  relative level of abcB8 gene expression: 5.353
abcA10; 2 h
  relative level of abcA10 gene expression: 4.82
abcA10; 4 h
  relative level of abcA10 gene expression: 3.419
abcA10; 8 h
  relative level of abcA10 gene expression: 3.793
abcA1; 2 h
  relative level of abcA1 gene expression: 3.053
abcA1; 4 h
  relative level of abcA1 gene expression: 1.866
abcA1; 8 h
  relative level of abcA1 gene expression: 2.346
abcA2; 2 h
  relative level of abcA2 gene expression: 6.224
abcA2; 4 h
  relative level of abcA2 gene expression: 2.947
abcA2; 8 h
  relative level of abcA2 gene expression: 4.022
abcG4; 2 h
  relative level of abcG4 gene expression: 9.59
abcG4; 4 h
  relative level of abcG4 gene expression: 5.309
abcG4; 8 h
  relative level of abcG4 gene expression: 6.271
abcE1; 2 h
  relative level of abcE1 gene expression: 4.155
abcE1; 4 h
  relative level of abcE1 gene expression: 2.794
abcE1; 8 h
  relative level of abcE1 gene expression: 3.088
abcF3; 2 h
  relative level of abcF3 gene expression: 3.921
abcF3; 4 h
  relative level of abcF3 gene expression: 2.795
abcF3; 8 h
  relative level of abcF3 gene expression: 2.793
